From patent publication US20260174739A1 (priority 2022, published 2026)
Structures can show the parent of a compound that is named as a salt. Where two headings read alike, the source gives them in different places.

How the values were obtained:
[1] = In vivo metabolism (pharmacokinetic) experiment in mice; set-up: species or system male ICR mice; settings: mouse, male ICR mice; for AUC(0-inf) / Cmax / half-life: oral 10 mg/kg, plasma; for AUC(0-inf): read-out: AUC0-inf(po); for Cmax: read-out: Cmax (po); for half-life: read-out: T1/2 (po) (converted)
Method: Animal: male ICR mice. The animals were randomly assigned to treatment groups and fasted for 12 h prior to dosing.
Drug: the compound of the present disclosure was dissolved in a vehicle (5% DMSO+5% Solutol HS15+90% saline). For intravenous (iv) administration, the dose was 2.5 mg/kg with a dosing volume of 5 mL/kg; for oral (po) administration, the dose was 10 mg/kg with a dosing volume of 10 mL/kg body weight. Sample collection and bioanalysis: blood was collected from the orbit of the mice and added into EP tubes containing heparin sodium at 0.083, 0.25, 0.5, 1, 2, 4, 6, and 8 h (n=3 for each time point). Immediately after blood collection, the mice were euthanized by cervical dislocation, and mouse brains were collected at the corresponding time points. All samples were promptly collected, snap-frozen, and stored at −70° C. for later use. Plasma samples were obtained by centrifugation of whole blood. 10 μL of plasma was mixed with 190 μL of internal standard solution (20 ng/ml in acetonitrile containing 0.1% formic acid). After mixing, the samples were centrifuged at 13000 rpm for 10 min, and 120 μL of the supernatant was separately collected. Depending on the sensitivity of the compound, 0.5-10 μL of the supernatant was taken for drug analysis using the appropriate liquid chromatography-tandem mass spectrometry (LC-MS/MS). Each analyte was calibrated and identified using standards. According to brain tissue: the extract (50% acetonitrile/water) at a ratio of 1 g:8 mL was homogenized for 2 min using five 3 mm magnetic beads in an OMNI Bead Ruptor 24 Elite homogenizer at 3.2 m/s and centrifuged at 4° C. and 3000 g for 3 min. 50 μL of the supernatant was mixed with 200 μL of internal standard solution (20 ng/mL in 80% acetonitrile/water). After mixing, the samples were centrifuged at 13,000 rpm for 10 min, and 120 μL of the supernatant was separately collected. Depending on the sensitivity of the compound, 0.5-10 μL of the supernatant was taken for drug analysis using the appropriate LC-MS/MS method. Each analyte was calibrated and identified using standards.
Data analysis: drug concentrations below the lower limit of quantification (LLOQ) were considered zero. Pharmacokinetic parameters were analyzed using PK Solver with a non-compartmental, bolus injection or extravascular input analysis models. Data points below the LLOQ were excluded to improve the efficacy of t1/2 calculation.

human DAT = human DAT (Homo sapiens, UniProt Q01959); assay: DAT transporter inhibitory activity test (neurotransmitter transporter uptake assay kit); assay type: cell-based; settings: DAT stably transfected HEK cells; read-out: DAT (IC50)
Method: Transporter inhibition of human DAT and NET expressed in HEK-293 cells was assessed using a neurotransmitter transporter uptake assay kit. The assay was performed as described in the kit instructions, using centanafadine as a positive control. The specific procedures were as follows:
DAT stably transfected culture: The DAT-HEK cell line was cultured in DMEM medium containing 10% fetal bovine serum and 0.2 mg/mL hygromycin B at 37° C. with 5% carbon dioxide.
DAT stably transfected cell passage: the old medium was removed, and the cells were washed once with PBS; 1 mL of TrypLE™ Express solution was then added, and the cells were incubated at 37° C. for about 2 min. When the cells were detached from the bottom of the dish, about 5 mL of complete medium pre-heated at 37° C. was added. The cell suspension was gently pipetted to separate the aggregated cells. The cell suspension was transferred to a sterile centrifuge tube and centrifuged at 1000 rpm for 5 min. In order to maintain the physiological activity of the cells, the experimental cell confluence was controlled at about 80%.
• a) After overnight transfection of NET cells, the cells were digested with trypsin, resuspended with DMEM+10% Dialyzed FBS medium, seeded into a 384-well plate at 20000 cells/well, and incubated overnight. […] After centrifuging, the plate was incubated at 37° C. for 30 min. • e) A detection reagent was prepared using 1×HBSS, and 16 μL of the detection reagent was added to each well. […] Curve fitting and IC50 calculation were performed using GraphPad Prism software nonlinear regression method.

human SERT = human SERT (Homo sapiens, UniProt P31645); assay: Inhibitory activity assay against 5-HT transporter (neurotransmitter transporter uptake assay kit); assay type: cell-based; settings: HEK-293 cells overexpressing human SERT; read-out: 5-HTT (IC50)
Method: In HEK-293 cells overexpressing human SERT, the transporter inhibitory effect of the test compound on human SERT was assayed using a Neurotransmitter transporter uptake assay kit (Molecular devices).

human SERT, sequence (P31645 whole entry): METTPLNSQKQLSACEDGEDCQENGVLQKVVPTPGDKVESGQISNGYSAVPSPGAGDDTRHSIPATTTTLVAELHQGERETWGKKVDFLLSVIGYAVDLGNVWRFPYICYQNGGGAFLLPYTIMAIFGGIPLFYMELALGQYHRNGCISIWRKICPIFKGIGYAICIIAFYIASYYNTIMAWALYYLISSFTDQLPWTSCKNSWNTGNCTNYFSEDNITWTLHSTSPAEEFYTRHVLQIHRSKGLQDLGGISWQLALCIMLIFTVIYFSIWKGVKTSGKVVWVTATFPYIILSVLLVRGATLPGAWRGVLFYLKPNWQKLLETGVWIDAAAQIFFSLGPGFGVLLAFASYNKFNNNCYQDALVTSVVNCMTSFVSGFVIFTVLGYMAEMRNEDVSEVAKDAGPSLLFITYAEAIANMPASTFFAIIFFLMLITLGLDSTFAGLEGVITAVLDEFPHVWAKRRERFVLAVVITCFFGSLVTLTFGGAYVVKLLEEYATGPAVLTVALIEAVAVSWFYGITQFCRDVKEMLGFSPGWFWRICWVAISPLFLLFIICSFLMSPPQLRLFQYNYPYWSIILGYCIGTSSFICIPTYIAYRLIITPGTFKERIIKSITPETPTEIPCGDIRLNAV
human DAT, sequence (Q01959 whole entry): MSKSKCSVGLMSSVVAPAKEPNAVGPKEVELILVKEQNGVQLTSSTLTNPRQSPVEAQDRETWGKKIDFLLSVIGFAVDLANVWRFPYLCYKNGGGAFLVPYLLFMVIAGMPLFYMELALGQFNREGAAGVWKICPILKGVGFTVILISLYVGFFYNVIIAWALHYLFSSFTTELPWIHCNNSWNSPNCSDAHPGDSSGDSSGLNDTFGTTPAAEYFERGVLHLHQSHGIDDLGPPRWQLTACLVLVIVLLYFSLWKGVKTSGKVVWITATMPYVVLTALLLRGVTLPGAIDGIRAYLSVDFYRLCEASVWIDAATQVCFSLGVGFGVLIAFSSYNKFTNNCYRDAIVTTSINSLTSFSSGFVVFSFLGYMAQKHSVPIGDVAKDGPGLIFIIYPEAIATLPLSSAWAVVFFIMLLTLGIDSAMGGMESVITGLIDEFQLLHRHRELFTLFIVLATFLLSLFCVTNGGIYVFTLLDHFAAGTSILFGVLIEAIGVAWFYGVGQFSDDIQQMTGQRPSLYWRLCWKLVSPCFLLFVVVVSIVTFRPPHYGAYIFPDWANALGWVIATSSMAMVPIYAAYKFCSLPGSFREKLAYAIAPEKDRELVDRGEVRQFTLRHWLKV

Row | SMILES | IC50 (human DAT) | IC50 (human SERT) | other results
1 | O=C(O)c1cc2c(s1)CCC(c1ccccc1)(N1CCOCC1)C2 (racemic) [rac-A46, 5-morpholino-5-phenyl-4,5,6,7-tetrahydrobenzothiophen-2-carboxylic acid] | – | – | AUC(0-inf) ([1]; male, ICR, po, 10 mg/kg): 3900 ng·h/mL; Cmax ([1]; male, ICR, po, 10 mg/kg): 2710 ng/mL; half-life ([1]; male, ICR, po, 10 mg/kg): 2.6 h
2 | c1ccc(C2(N3CCOCC3)CCc3sccc3C2)cc1 (racemic) [rac-A47, 4-(5-phenyl-4,5,6,7-tetrahydrobenzothiophen-5-yl)morpholine] | 1.3 µM | – | –
3 | c1ccc(C2(N3CCCC3)CCc3nnsc3C2)cc1 (racemic) [rac-A54, 6-phenyl-6-(pyrrolidin-1-yl)-4,5,6,7-tetrahydrobenzothiadiazole] | 2.8 µM | – | –
4 | Clc1cccc(C2(N3CCCCC3)CCc3nnsc3C2)c1 (racemic) [rac-A58, 6-(3-chlorophenyl)-6-(piperidin-1-yl)-4,5,6,7-tetrahydrobenzothiadiazole] | 2.7 µM | – | –
5 | CNC1(c2ccccc2)CCc2[nH]ncc2C1 (racemic) [rac-A69, N-methyl-5-phenyl-4,5,6,7-tetrahydro-1H-indazol-5-amine] | – | – | bioavailability ([1]; oral 10 mg/kg vs iv 2.5 mg/kg, read-out: F (%)): 132%; AUC(0-inf) [1]: 602 ng·h/mL; Cmax [1]: 456 ng/mL; half-life [1]: 0.69 h
6 | CNC1(c2cccnc2)CCc2nc(N)sc2C1 (racemic) [rac-A99, N^6-methyl-6-(pyridin-3-yl)-4,5,6,7-tetrahydrobenzothiazole-2,6-diamine] | 11 µM | – | –
7 | CCNC1(c2cccc(OC)c2)CCc2nc(N)sc2C1 (racemic) [rac-A226, N^6-ethyl-6-(3-methoxyphenyl)-4,5,6,7-tetrahydrobenzo[d]thiazole-2,6-diamine] | 2 µM | 2 µM | –
8 | CN(C)C1(c2ccccc2F)CCc2nc(N)sc2C1 (racemic) [rac-A234, 6-(2-fluorophenyl)-N^6,N^6-dimethyl-4,5,6,7-tetrahydrobenzo[d]thiazole-2,6-diamine] | 6.3 µM | 0.3 µM | –
9 | NC1(c2ccc3ccccc3c2)CCc2sccc2C1 (racemic) [rac-A247, 5-(naphthalen-2-yl)-4,5,6,7-tetrahydrobenzo[b]thiophen-5-amine] | 1.5 µM | 4.5 µM | –
10 | CNCC1(c2ccccc2)CCc2nc(N)sc2C1 (racemic) [rac-A252, 6-((methylamino)methyl)-6-phenyl-4,5,6,7-tetrahydrobenzo[d]thiazol-2-amine] | 9.5 µM | – | –
11 | COc1cccc(C2(N(C)C)CCc3nc(N)sc3C2)c1 (racemic) [rac-A283, 6-(3-methoxyphenyl)-N^6,N^6-dimethyl-4,5,6,7-tetrahydrobenzo[d]thiazole-2,6-diamine] | 0.45 µM | – | –
12 | Nc1nc2c(s1)CC(N)(c1ccc3c(c1)OCO3)CC2 (racemic) [rac-A303, 6-(benzo[d][1,3]dioxol-5-yl)-4,5,6,7-tetrahydrobenzo[d]thiazole-2,6-diamine] | 8.2 µM | – | –
13 | CN(C)C1(c2cccc(O)c2)CCc2nc(N)sc2C1 (racemic) [rac-A305, 3-(2-amino-6-dimethylamino-4,5,6,7-tetrahydrobenzo[d]thiazol-6-yl)phenol] | 0.24 µM | – | –
14 | COc1cc(C2(N)CCc3nc(N)sc3C2)ccn1 (racemic) [rac-A309, 6-(2-methoxypyridin-4-yl)-4,5,6,7-tetrahydrobenzo[d]thiazole-2,6-diamine] | 14 µM | – | –
15 | COc1cccc(C2(N)CCc3nc(C4CC4)sc3C2)c1 (racemic) [rac-A316, 2-cyclopropyl-6-(3-methoxyphenyl)-4,5,6,7-tetrahydrobenzo[d]thiazol-6-amine hydrochloride] | – | 4 µM | –
16 | COc1cccc(C2(N)CCc3nc(OC)sc3C2)c1 (racemic) [rac-A317, 2-methoxy-6-(3-methoxyphenyl)-4,5,6,7-tetrahydrobenzo[d]thiazol-6-amine] | – | 5.1 µM | –
17 | COc1cccc(C2(N)CCc3nc(Br)sc3C2)c1 (racemic) [rac-A318, 2-bromo-6-(3-methoxyphenyl)-4,5,6,7-tetrahydrobenzo[d]thiazol-6-amine hydrochloride] | – | 4.6 µM | –
18 | COc1cccc(C2(N)CCc3nc(-c4ccccc4)sc3C2)c1 (racemic) [rac-A319, 6-(3-methoxyphenyl)-2-phenyl-4,5,6,7-tetrahydrobenzo[d]thiazol-6-amine hydrochloride] | – | 0.98 µM | –
19 | CC(C)Oc1cccc(C2(N)CCc3nc(N)sc3C2)c1 (racemic) [rac-A321, 6-(3-isopropoxyphenyl)-4,5,6,7-tetrahydrobenzo[d]thiazole-2,6-diamine] | 5.9 µM | – | –
20 | CNC1(c2ccc(Cl)cc2)CCc2nc(N)sc2C1 (racemic) [rac-A332, 6-(4-chlorophenyl)-N^6-methyl-4,5,6,7-tetrahydrobenzo[d]thiazole-2,6-diamine] | 3.2 µM | – | –
21 | CCOc1cccc(C2(NC)CCc3nc(N)sc3C2)c1 (racemic) [rac-A342, 6-(3-ethoxyphenyl)-N^6-methyl-4,5,6,7-tetrahydrobenzo[d]thiazole-2,6-diamine] | 0.35 µM | – | –
22 | Nc1nc2c(s1)CC(NCC1CC1)(c1ccccc1F)CC2 (racemic) [rac-A374, N^6-(cyclopropylmethyl)-6-(2-fluorophenyl)-4,5,6,7-tetrahydrobenzo[d]thiazole-2,6-diamine] | 3.8 µM | – | –
23 | NC1(c2cccc(O)c2)CCc2nc(NCC(F)(F)F)sc2C1 (racemic) [rac-A396, 3-(6-amino-2-((2,2,2-trifluoroethyl)amino)-4,5,6,7-tetrahydrobenzo[d]thiazol-6-yl)phenol] | 18 µM | – | –
24 | Nc1nc2c(s1)C[C@@](N)(c1ccccc1)CC2 [R-A1] | – | 1 µM | –
25 | N[C@]1(c2ccccc2)CCc2ncsc2C1 [R-A14] | – | 0.067 µM | –
26 | CCOc1cccc([C@@]2(N)CCc3nc(N)sc3C2)c1 [R-A228, (R)-6-(3-ethoxyphenyl)-4,5,6,7-tetrahydrobenzo[d]thiazole-2,6-diamine] | – | 2.9 µM | –
27 | Nc1nc2c(s1)C[C@](N)(c1ccccc1)CC2 [S-A1] | 6.5 µM | – | –
28 | N[C@@]1(c2ccccc2)CCc2ncsc2C1 [S-A14] | 11 µM | – | –
29 | Nc1nc2c(s1)C[C@@](c1ccccc1)(N1CCCC1)CC2 [S-A50] | 2.4 µM | – | –
30 | CCOc1cccc([C@]2(N)CCc3nc(N)sc3C2)c1 [S-A228, (S)-6-(3-ethoxyphenyl)-4,5,6,7-tetrahydrobenzo[d]thiazole-2,6-diamine] | 1.8 µM | – | –
